Where a name gives a salt, the structure may show the parent alone. Read-outs that look alike come from different tables or passages of the source.
Columns and labels:
[1] = tested on: female SA rats; assay: Liver toxicity (serum liver enzymes and total bilirubin); format: in vivo, rat; details: iv infusion 2 x 37.5 μmole/kg, 12 hours after second dose
Method: Female SA rats (150-200 g) were anesthetized with halothane and cannulated via the internal jugular vein. The animals wee allowed to recover for 3 days. […] Twelve hours later, an additional 37.5 μmole/kg was infused over 20 minutes (total dose=75 μmole/kg). […] Liver enzymes (serum glutamic-oxaloacetic transaminase (SGOT), serum glutamic-pyruvic transaminase (SGPT), alkaline phosphatase) and total bilirubin in the serum samples were dermined by a commercial laboratory.

[2] = target: T1, partially purified pig heart adenosine kinase (Sus scrofa, UniProt A0A5G2R0F5); assay: Adenosine kinase (AK) inhibition; format: biochemical
T1 construct: partially purified pig heart adenosine kinase; from tissue; host or cells: pig heart
T1 sequence (A0A5G2R0F5 1-362): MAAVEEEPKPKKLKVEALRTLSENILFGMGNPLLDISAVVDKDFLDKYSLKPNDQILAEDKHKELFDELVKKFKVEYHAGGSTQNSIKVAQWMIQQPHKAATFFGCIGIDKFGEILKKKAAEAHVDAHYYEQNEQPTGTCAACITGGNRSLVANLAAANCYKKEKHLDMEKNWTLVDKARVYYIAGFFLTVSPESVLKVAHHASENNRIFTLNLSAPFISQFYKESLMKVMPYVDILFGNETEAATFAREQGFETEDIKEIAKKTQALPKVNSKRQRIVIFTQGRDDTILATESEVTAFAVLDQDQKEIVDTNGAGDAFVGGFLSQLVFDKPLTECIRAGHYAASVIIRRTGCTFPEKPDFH
Method: Adenosine kinase activity was measured essentially as described by Yamada et al. Biochim. Biophys. Acta 660, 36-43 […] with a few minor modifications. Assay mixtures contained 50 mM TRIS-maleate buffer, pH 7.0, 0.1% BSA, 1 mM ATP 1 mM MgCl2, 0.5 μM [U-^14 C]adenosine (400-600 mCi/mmol) and varying duplicate concentrations of inhibitor. The reactions were initiated by addition of approximately 0.1 μU partially purified pig heart adenosine kinase, where one unit is defined as that amount of enzyme required to phosphorylate 1 μmol adenosine per minute. The reactions were incubated for 20 minutes at 37° C. The assay was quenched upon spotting 30 μL aliquots onto 2 cm^2 pieces of Whatman DE81 anion exchange paper. The paper squares were washed for 3 minutes in 6 L distilled/deionized water to remove the unreacted adenosine. […] The amount of ^14 C-AMP was quantified by scintillation counting.

[3] = tested on: male SA rats; assay: Anticonvulsant activity, maximal electroshock (MES) model, suppression of hind limb tonic extension; format: in vivo; details: Rattus norvegicus, 1 h
[4] = tested on: carrageenan-induced paw swelling in rats; assay: Anti-inflammatory activity, carrageenan paw swelling; format: in vivo, rat; details: po, 10 mg/kg, paw swelling 3 hours after carrageenan, vs vehicle
Method: Carrageenan (Type λ) was suspended in sterile PBS at 1% (w/v), autoclaved for 30 minutes, and stored at room temperature. Rats were pretreated with vehicle or AK inhibitor (10 mg/kg) by oral gavage or i.p. administration and the volume of the left hind paw was measured using a water displacement plethysmometer (Stoelting Co., Wood Dale, Ill.). One hour after oral treatment or 30 minutes after i.p. treatment, the rats were briefly anesthetized, and 0.1 ml of the carrageenan solution was injected subcutaneously into the planar surface of the left hind paw. The ensuing paw swelling was measured by plethysmometry after 3 hours. The paw volume in millileters was subtracted from the pre-injection paw volume. Data are presented as the percent inhibition of paw swelling in AK inhibitor treated animals, compared to vehicle treated control animals.

[5] = ip, one hour before seizure testing, >5 or <5 = fewer or more than 50% inhibited in initial screen at 5 mg/kg ip, read-out: Anticonvulsant ED50 (MES), ip
[6] = ip, one hour before seizure testing, >5 or <5 = fewer or more than 50% inhibited in initial screen at 5 mg/kg ip
[7] = po, fasted, one hour before seizure testing, read-out: Anticonvulsant ED50 (MES), po

SMILES	IC50 [2] [nM]	ED50 at 5 mg/kg [3, 6] [mg/kg]	ED50 [3, 7] [mg/kg]	other results
C[C@H]1O[C@@H](n2cc(I)c3c(N)ncnc32)[C@H](O)[C@@H]1O [REF. A]	–	–	–	SGPT [1]: 76 IU/L; Total Bilirubin [1]: 0.76 mg/dL
NC[C@H]1O[C@@H](n2nc(Br)c3c(N)ncnc32)[C@H](O)[C@@H]1O [REF. B, 4amino-1-(5-amino-5-deoxy-1-D-ribofuranosyl)-3-bromopyrazolo[3,4d]pyrimidne HCL]	–	–	–	SGOT [1]: 100 IU/L; SGPT [1]: 41 IU/L; Total Bilirubin [1]: 0.30 mg/dL
C[C@H]1O[C@@H](n2cc(-c3ccccc3)c3c(Nc4cc(F)cc(F)c4)ncnc32)[C@H](O)[C@@H]1O [compound 10]	1	–	–	ED50 [3, 5]: 5 mg/kg
C[C@H]1O[C@@H](n2cc(-c3ccccc3)c3c(Nc4ccc(F)c(F)c4)ncnc32)[C@H](O)[C@@H]1O [compound 11]	4	5	–	–
COc1ccc(Nc2ncnc3c2c(-c2ccccc2)cn3[C@@H]2O[C@H](C)[C@@H](O)[C@H]2O)cc1 [compound 13]	6	–	> 10	ED50 [3, 5]: 2 mg/kg
C[C@H]1O[C@@H](n2cc(-c3cccc(Cl)c3)c3c(Nc4ccccc4)ncnc32)[C@H](O)[C@@H]1O [compound 15]	16	2.5	–	ED50 ([3]; po, read-out: Anticonvulsant ED50 (MES), po): > 20 mg/kg
Cc1ccc(-c2cn([C@@H]3O[C@H](C)[C@@H](O)[C@H]3O)c3ncnc(Nc4ccccc4)c23)cc1 [compound 16]	9	2.3	8.7	–
C[C@H]1O[C@@H](n2cc(-c3ccccc3)c3c(Nc4cccc(Cl)c4)ncnc32)[C@H](O)[C@@H]1O [compound 17]	17	–	–	–
Cc1cccc(Nc2ncnc3c2c(-c2ccccc2)cn3[C@@H]2O[C@H](C)[C@@H](O)[C@H]2O)c1 [compound 18]	4	3.8	> 40	–
C[C@H]1O[C@@H](n2cc(-c3ccccc3)c3c(Nc4cccc(F)c4)ncnc32)[C@H](O)[C@@H]1O [compound 19]	2	0.4	> 30	–
C[C@H]1O[C@@H](n2cc(-c3ccccc3)c3c(Nc4ccc(O)cc4)ncnc32)[C@H](O)[C@@H]1O [compound 20]	32	–	40	ED50 [3, 5]: 5.5 mg/kg
C[C@H]1O[C@@H](n2cc(-c3ccc(F)cc3)c3c(Nc4ccccc4)ncnc32)[C@H](O)[C@@H]1O [compound 24]	–	2.5	10	–
COc1ccc(-c2cn([C@@H]3O[C@H](C)[C@@H](O)[C@H]3O)c3ncnc(Nc4ccc(F)cc4)c23)cc1 [compound 25]	10	3.1	–	–
CCOc1ccc(Nc2ncnc3c2c(-c2ccccc2)cn3[C@@H]2O[C@H](C)[C@@H](O)[C@H]2O)cc1 [compound 28]	4	< 5	–	Carrageenan Paw (% inh) [4]: 31.0%
CCc1ccc(Nc2ncnc3c2c(-c2ccccc2)cn3[C@@H]2O[C@H](C)[C@@H](O)[C@H]2O)cc1 [compound 29]	20	> 5	–	–
C[C@H]1O[C@@H](n2cc(-c3cccc([N+](=O)[O-])c3)c3c(Nc4ccc(F)cc4)ncnc32)[C@H](O)[C@@H]1O [compound 30]	28	> 5	–	–
COc1ccc(-c2cn([C@@H]3O[C@H](C)[C@@H](O)[C@H]3O)c3ncnc(Nc4ccc(C(N)=O)cc4)c23)cc1 [compound 31]	2	> 5	–	Carrageenan Paw (% inh) [4]: -5.8%
CC(=O)Nc1ccc(Nc2ncnc3c2c(-c2ccccc2)cn3[C@@H]2O[C@H](C)[C@@H](O)[C@H]2O)cc1 [compound 32]	0.5	5	> 5	–

SMILES	IC50 [2] [nM]	ED50 at 5 mg/kg [3, 6] [mg/kg]	ED50 [3, 7] [mg/kg]	other results
C[C@H]1O[C@@H](n2cc(-c3ccccc3)c3c(Nc4ccc(S(N)(=O)=O)cc4)ncnc32)[C@H](O)[C@@H]1O [compound 34]	5	5	–	Carrageenan Paw (% inh) [4]: -0.2%
C[C@H]1O[C@@H](n2cc(-c3ccccc3)c3c(NCc4ccccc4)ncnc32)[C@H](O)[C@@H]1O [compound 38]	30	–	–	ED50 [3, 5]: > 5 mg/kg
CSc1ccc(Nc2ncnc3c2c(-c2ccccc2)cn3[C@@H]2O[C@H](C)[C@@H](O)[C@H]2O)cc1 [compound 40]	2	5	> 10	–
C[C@H]1O[C@@H](n2c(Br)c(-c3ccccc3)c3c(Nc4ccc(F)cc4)ncnc32)[C@H](O)[C@@H]1O [compound 41]	42	> 5	–	–
C[C@H]1O[C@@H](n2cc(-c3ccccc3)c3c(Nc4ccc(N)cc4)ncnc32)[C@H](O)[C@@H]1O [compound 43]	3	< 5	–	–
C[C@H]1O[C@@H](n2nc(-c3ccccc3)c3c(Nc4ccccc4)ncnc32)[C@H](O)[C@@H]1O [compound 86]	4.5	12.3	> 20	–
[N-]=[N+]=NC[C@H]1O[C@@H](n2nc(-c3ccccc3)c3c(Nc4ccccc4)ncnc32)[C@H](O)[C@@H]1O [compound 87]	4.5	2.31	> 2.3	–
OC[C@H]1O[C@@H](n2nc(-c3ccccc3)c3c(Nc4ccccc4)ncnc32)[C@H](O)[C@@H]1O [compound 88]	5	–	> 2.6	ED50 [3, 5]: 2.62 mg/kg
COc1ccc(Nc2ncnc3c2c(-c2ccccc2)nn3[C@@H]2O[C@H](C)[C@@H](O)[C@H]2O)cc1 [compound 89]	17	5	–	–
COc1ccc(Nc2ncnc3c2c(-c2ccccc2)nn3[C@@H]2O[C@H](CN=[N+]=[N-])[C@@H](O)[C@H]2O)cc1 [compound 90]	8	> 3.4	–	–
C[C@H]1O[C@@H](n2nc(-c3ccccc3)c3c(Nc4ccc(Cl)cc4)ncnc32)[C@H](O)[C@@H]1O [compound 91]	–	–	–	IC50 ([2]; read-out: AK Inhibition (IC50), 0.5 μM [U-14C]adenosine, pH 7.0, 37° C., 20 minutes): 11 nM
[N-]=[N+]=NC[C@H]1O[C@@H](n2nc(-c3ccccc3)c3c(Nc4ccc(Cl)cc4)ncnc32)[C@H](O)[C@@H]1O [compound 92]	17	–	–	–
Cc1ccc(-c2nn([C@@H]3O[C@H](CN=[N+]=[N-])[C@@H](O)[C@H]3O)c3ncnc(Nc4ccccc4)c23)cc1 [compound 93]	20	> 5	–	–
COc1ccc(-c2nn([C@@H]3O[C@H](CN=[N+]=[N-])[C@@H](O)[C@H]3O)c3ncnc(Nc4ccccc4)c23)cc1 [compound 94]	3	> 5	–	–
COc1ccc(-c2nn([C@@H]3O[C@H](CN=[N+]=[N-])[C@@H](O)[C@H]3O)c3ncnc(Nc4ccc(C)cc4)c23)cc1 [compound 95]	–	> 5	–	–
[N-]=[N+]=NC[C@H]1O[C@@H](n2nc(-c3ccc(Cl)cc3)c3c(Nc4ccccc4)ncnc32)[C@H](O)[C@@H]1O [compound 96]	15	> 5	–	–
[N-]=[N+]=NC[C@H]1O[C@@H](n2nc(-c3cccs3)c3c(Nc4ccccc4)ncnc32)[C@H](O)[C@@H]1O [compound 97]	–	–	–	IC50 ([2]; 0.5 μM [U-14C]adenosine, pH 7.0, 37° C., 20 minutes, read-out: AK Inhibition (IC50)): 10 nM; ED50 [3, 5]: > 5 mg/kg
